Like-named read-outs stand apart in the source and are kept apart here.
Columns and labels:
[1] = Saturation solubility studies in various mediums; format: physicochemical
Protocol: Saturation solubility studies were conducted in various mediums for ivacaftor polymorph Form-L2 and Amorphous form and the data is given in Table III.

[2] = Chemical and polymorphic stability study of Ivacaftor Form-L2 on storage (HPLC, XRD); format: physicochemical
Protocol: Ivacaftor Form L2 is packed in a transparent Low density polyethylene (LDPE) bag with a strip seal, which is again kept in a second transparent low density polyethylene bag with strip seal. The LDPE bag is kept in to a triple laminated sunlight barrier with heat seal followed by in a high density polyethylene container and well closed. The ivacaftor was analyzed using High Performance Liquid Chromatography (“HPLC”) with the conditions are tabulated below: [table]

[3] = stored at 25 ± 2° C./60 ± 5% RH, 1 month
[4] = stored at 25 ± 2° C./60 ± 5% RH, 3 month
[5] = stored at 25 ± 2° C./60 ± 5% RH, Initial
[6] = stored at 40 ± 2° C./75 ± 5% RH, 1 month
[7] = stored at 40 ± 2° C./75 ± 5% RH, 3 month
[8] = stored at 40 ± 2° C./75 ± 5% RH, Initial

## CC(C)(C)c1cc(C(C)(C)C)c(NC(=O)c2c[nH]c3ccccc3c2=O)cc1O [Amorphous form, N-(2,4-di-tert-butyl-5-hydroxyphenyl)-1,4-dihydro-4-oxoquinoline-3-carboxamide, reference compound]
[1]; 0.001N HCl + 0.7% SLS, pH 3.12
  solubility: 0.23 mg/mL
[1]; 0.01N HCl + 0.7% SLS, pH 2.12
  solubility: 0.18 mg/mL
[1]; 50 mM Phosphate buffer + 0.7% SLS, pH 4.60
  solubility: 0.19 mg/mL
[1]; 0.1N HCl + 0.7% SLS, pH 1.10
  solubility: 0.12 mg/mL
[1]; pH 4.5 AB + 0.7% SLS, pH 4.52
  solubility: 0.17 mg/mL
[1]; pH 5.5 PB + 0.7% SLS, pH 5.53
  solubility: 0.18 mg/mL
[1]; pH 6.8 PB + 0.7% SLS, pH 6.80
  solubility: 0.18 mg/mL

## CC(C)(C)c1cc(C(C)(C)C)c(NC(=O)c2c[nH]c3ccccc3c2=O)cc1O [Ivacaftor Form-L2, N-(2,4-di-tert-butyl-5-hydroxyphenyl)-1,4-dihydro-4-oxoquinoline-3-carboxamide]
[2]; different storage condition (25° C./60% RH and 40° C./75% RH)
  Polymorphic and chemical identity on storage: retained the same polymorphic and chemical identity at least up to three months
[2]; [3]
  Any major unknown impurity: 0.02 % by HPLC
  Description: off-white
  Solid form by XRD: Complies
  Total impurity: 0.02 % by HPLC
[2]; [4]
  Any major unknown impurity: 0.02 % by HPLC
  Description: off-white
  Solid form by XRD: Complies
  Total impurity: 0.02 % by HPLC
[2]; [5]
  Any major unknown impurity: 0.02 % by HPLC
  Description: off-white
  Solid form by XRD: Complies
  Total impurity: 0.03 % by HPLC
[2]; stored at 25 ± 2° C./60 ± 5% RH, Initial, LOD 0.006%
  Quinolone acid (Imp-3): 0.01 % by HPLC
[2]; [6]
  Any major unknown impurity: 0.01 % by HPLC
  Description: off-white
  Solid form by XRD: Complies
  Total impurity: 0.03 % by HPLC
[2]; [7]
  Any major unknown impurity: 0.01 % by HPLC
  Description: off-white
  Solid form by XRD: Complies
  Total impurity: 0.03 % by HPLC
[2]; [8]
  Any major unknown impurity: 0.02 % by HPLC
  Description: off-white
  Impurity at RRT 0.59: 0.01 % by HPLC
  Solid form by XRD: Complies
  Total impurity: 0.03 % by HPLC
[1]; 0.001N HCl + 0.7% SLS, pH 3.12, aqueous with cosolvent or surfactant or cyclodextrin, thermodynamic from solid, 0.001N HCl + 0.7% SLS, pH 3.12, read-out: Solubility
  solubility: 0.24 mg/mL
[1]; 0.01N HCl + 0.7% SLS, pH 2.12, aqueous with cosolvent or surfactant or cyclodextrin, thermodynamic from solid, 0.01N HCl + 0.7% SLS, pH 2.12, read-out: Solubility
  solubility: 0.26 mg/mL
[1]; 50 mM Phosphate buffer + 0.7% SLS, pH 4.6, aqueous with cosolvent or surfactant or cyclodextrin, thermodynamic from solid, 50 mM Phosphate buffer + 0.7% SLS, pH 4.60, read-out: Solubility
  solubility: 0.38 mg/mL
[1]; 0.1N HCl + 0.7% SLS, pH 1.1, aqueous with cosolvent or surfactant or cyclodextrin, thermodynamic from solid, 0.1N HCl + 0.7% SLS, pH 1.10, read-out: Solubility
  solubility: 0.15 mg/mL
[1]; pH 4.5 AB + 0.7% SLS, pH 4.52, aqueous with cosolvent or surfactant or cyclodextrin, thermodynamic from solid, pH 4.5 AB + 0.7% SLS, pH 4.52, read-out: Solubility
  solubility: 0.31 mg/mL
[1]; pH 5.5 PB + 0.7% SLS, pH 5.53, aqueous with cosolvent or surfactant or cyclodextrin, thermodynamic from solid, pH 5.5 PB + 0.7% SLS, pH 5.53, read-out: Solubility
  solubility: 0.26 mg/mL
[1]; pH 6.8 PB + 0.7% SLS, pH 6.8, aqueous with cosolvent or surfactant or cyclodextrin, thermodynamic from solid, pH 6.8 PB + 0.7% SLS, pH 6.80, read-out: Solubility
  solubility: 0.26 mg/mL
[1]; various mediums, Table III
  Solubility compared to amorphous form: more solubility when compared to amorphous form

Source: patent publication US9957234B2, “Polymorphs of Ivacaftor, process for its preparation and pharmaceutical composition thereof” (Laurus Labs Limited, priority 2014, dated 2018)
